We go through one molecule from patent US20250281456A1, “METHODS OF TREATING CANCER BY INHIBITING BACTERIAL DNAK TO RESTORE ACTIVITIES OF ANTICANCER DRUGS” (University of Maryland, Baltimore, priority 2022, published 2025).

One data set addresses human Hsp70 (Homo sapiens, UniProt P0DMV8). As to conditions: previously demonstrated; cited from earlier work.
Data set [1] concerns HCT116 cells. Kind of data set: Western blot of eM-DnaK entry into HCT116 cells after incubation with ARV-1502. As to conditions: eM-DnaK incubated 3 hours with ARV-1502, added to cells 24 hours, then cisplatin 48 hours. It counts as cell-based, human. As for the experimental part: (§1) FIG. 17. A) Direct binding of eM-DnaK to ARV-1502 as determined by surface plasmon resonance (SPR). Association of ARV-1502 at different concentrations on 2274.9 response units of eM-DnaK immobilized on a CM5 biosensor chip proceeded at a flow rate of […] for 250 sec, followed by a 600 sec dissociation in HBS-EP.
Western blot was performed to verify the expression of DnaK in the mouse primary cancer cells, in the internalization of the exogenous DnaKs and to validate DnaK binding with ARV-1502. […] After 72 h since eM-DnaK treatment, cell monolayers were washed in cold PBS, trypsinized and resuspended in RIPA lysis buffer (Sigma-Aldrich, St. Louis, MO) in the presence of protease inhibitors (Sigma-Aldrich, St. Louis, MO). The protein concentration was measured by the Bradford assay (Bio-Rad Laboratories, Hercules, CA). Thirty micrograms of protein were resolved by SDS/PAGE, transferred to a polyvinylidene difluoride (PVDF) membrane using trans-blot turbo transfer system (Bio-Rad Laboratories, Hercules, CA), blocked in 5% nonfat dried milk in Tris-Buffered Saline (TBS) and probed overnight with either a mouse mAb against the V5 tag (#R960-25, Thermo Fisher Scientific, Walthman, MA) to detect the presence of eM-DnaK or a mouse mAb against […] (8H10D10) (#3700, Cell Signaling Technology, Danvers, MA). […]
(A western blot detects proteins with antibodies after separation by electrophoresis.)

Data set [2] addresses eM-DnaK (Mycoplasma fermentans DnaK). Kind of data set: Surface plasmon resonance (SPR) binding of ARV-1502 to immobilized eM-DnaK. As to conditions: 2274.9 RU eM-DnaK on CM5 chip, HBS-EP, 25° C., preliminary kinetic analysis. The method, then: as §1
Surface plasmon resonance (SPR) binding studies of DnaK and ARV-1502 were performed at 25° C. on a BIAcore T100 System (BIAcore, Inc., Piscataway, NY). We used as assay buffer HBS-EP, containing 10 mM HEPES, 150 mM NaCl, 0.05% surfactant P20, pH 7.4, 3 mM EDTA. DnaK (2274.9 RUs) was immobilized on CM5 sensor chips using the amine-coupling chemistry recommended by the manufacturer. Analytes were introduced into the flow cells at 35 μl/min in the running buffer. Association and dissociation were assessed for 250 seconds and 600 seconds. Resonance signals were corrected for nonspecific binding by subtracting the background of the control flow-cell. After each analysis, the sensor chip surfaces were regenerated with 10 mM glycine solution (pH 2.0) with MgCl 1M and equilibrated with the buffer before the next injection.

The next data set has as its system AGS cells. Nature of the data set: cells. As for the experimental part: (§2) FIG. 11. […] Parallel wells of untreated cells were used as negative control. Cell viability was assessed by using the trypan blue assay. Percentage of alive cells for each treatment are calculated as percentage using the untreated cell as reference. […] Statistical differences were tested using Student's t test. All statistical tests were two sided. p=***<0.001, **<0.01, *<0.05, ns=not significant.
(§3) FIG. 14. […] Parallel wells of untreated cells were used as negative control. Cell viability was assessed by using the trypan blue assay. Percentage of alive cells for each treatment are calculated as percentage using the untreated cell as reference. […] Statistical differences were tested using Student's t test. All statistical tests were two sided. p=*<0.05, **<0.01, ***<0.001.
(§4) To determine the effects of eM and eF-DnaKs on HCT116 and AGS cells lines treated with different anti-cancer drugs, cells were plated 200,000 cells/well in 6-wells plates. After 24 h, both eM-DnaK and eF-DnaK were added to the cultures at a concentration of 10 ug/ml. […] Parallel cultures of untreated cells were the negative controls. […] After 48 h of treatment with the anti-cancer drugs, cell monolayers were washed in PBS, trypsinized and cell viability was measured using the trypan blue assay. The trypan blue exclusion assay allows for a direct identification and enumeration of live (unstained) and dead (blue) cells in the given population.
(§5) More in detail, we pre-treated both exogenous DnaKs with ARV-1502 (25 μg/ml) before adding them to the culture of HCT116 or AGS cells. After 3 h of incubation the complex was added to the culture. After 24 h the cells were treated with the anti-cancer drugs and then subjected to count with trypan blue as previously described. Parallel cultures of cells treated with the drugs and DnaKs not complexed with ARV-1502 were used as control.

In data set [3] the test system is HCT116 cells. Nature of the data set: cells. As for the experimental part:
as §2, §3, §4, §5

A further data set addresses Escherichia coli DnaK (Escherichia coli, UniProt P0A6Y8). As to conditions: previously demonstrated; cited from earlier work.
Data set [4] has as its system primary murine cancer cells constitutively expressing DnaK.

Where a SMILES comes first, the peptide text is derived from it. [ ]: non-standard residue; d: D form. Ac6c = NC1(C(=O)O)CCCCC1

Chain of Escherichia coli DnaK (P0A6Y8 whole entry): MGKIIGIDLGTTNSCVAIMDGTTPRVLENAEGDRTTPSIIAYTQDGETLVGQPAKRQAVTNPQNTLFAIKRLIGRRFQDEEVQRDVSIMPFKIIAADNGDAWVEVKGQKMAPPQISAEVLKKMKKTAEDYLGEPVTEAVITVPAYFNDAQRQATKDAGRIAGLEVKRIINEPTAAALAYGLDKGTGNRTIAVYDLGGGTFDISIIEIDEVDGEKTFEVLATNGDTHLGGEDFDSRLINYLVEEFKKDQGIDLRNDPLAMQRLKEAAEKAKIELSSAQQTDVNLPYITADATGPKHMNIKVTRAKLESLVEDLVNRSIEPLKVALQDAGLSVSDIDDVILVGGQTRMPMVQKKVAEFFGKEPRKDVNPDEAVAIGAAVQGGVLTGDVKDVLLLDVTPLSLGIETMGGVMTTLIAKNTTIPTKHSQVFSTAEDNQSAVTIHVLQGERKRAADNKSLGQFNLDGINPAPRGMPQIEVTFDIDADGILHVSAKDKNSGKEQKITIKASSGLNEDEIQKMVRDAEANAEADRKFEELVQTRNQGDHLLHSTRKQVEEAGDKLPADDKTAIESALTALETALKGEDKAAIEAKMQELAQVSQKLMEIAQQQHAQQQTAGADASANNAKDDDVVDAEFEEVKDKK
Chain of human Hsp70 (P0DMV8 whole entry): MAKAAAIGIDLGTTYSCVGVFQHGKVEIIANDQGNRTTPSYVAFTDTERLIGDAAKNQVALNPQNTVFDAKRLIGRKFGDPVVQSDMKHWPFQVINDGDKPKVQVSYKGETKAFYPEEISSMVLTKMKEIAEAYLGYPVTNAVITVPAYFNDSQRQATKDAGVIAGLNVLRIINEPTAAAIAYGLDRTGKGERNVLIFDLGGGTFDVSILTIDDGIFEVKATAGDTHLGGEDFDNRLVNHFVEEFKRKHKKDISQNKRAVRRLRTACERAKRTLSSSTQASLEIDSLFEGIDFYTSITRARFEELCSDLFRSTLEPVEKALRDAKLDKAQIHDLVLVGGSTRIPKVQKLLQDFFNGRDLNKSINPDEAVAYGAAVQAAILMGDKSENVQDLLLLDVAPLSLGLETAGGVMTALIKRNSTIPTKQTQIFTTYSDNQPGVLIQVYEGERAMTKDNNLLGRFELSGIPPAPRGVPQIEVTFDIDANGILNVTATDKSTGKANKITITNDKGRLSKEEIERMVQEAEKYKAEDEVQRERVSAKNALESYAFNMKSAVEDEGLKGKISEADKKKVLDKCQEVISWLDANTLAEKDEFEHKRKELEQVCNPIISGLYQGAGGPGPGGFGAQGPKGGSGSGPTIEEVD

For `CC(C)C[C@H](NC(=O)[C@H](Cc1ccc(O)cc1)NC(=O)[C@@H]1CCCN1C(=O)[C@H](CCCNC(=N)N)NC(=O)[C@@H]1CCCN1C(=O)[C@H](CCCCN)NC(=O)[C@H](CC(=O)O)NC(=O)[C@@H]1CCCN1C(=O)[C@H](CCCNC(=N)N)NC(=O)C1(N)CCCCC1)C(=O)N1CCC[C@H]1C(=O)N[C@@H](CCCNC(=N)N)C(=O)N1CCC[C@H]1C(=O)N[C@@H](CCCNC(=N)N)C(=O)N1CCC[C@H]1C(=O)N1CCC[C@H]1C(=O)N[C@@H](CCCNC(=N)N)C(=O)N1CCC[C@H]1C(=O)N[C@H](C(=O)N[C@@H](CCCNC(=N)N)C(N)=O)C(C)C` [ARV-1502] (H-[Ac6c]RPDKPRPYLPRPRPPRPVR-NH2; N-terminus and C-terminus assumed), the “interaction with human Hsp70” value at human Hsp70 is “without interacting with human Hsp70”. Moreover, the “eM-DnaK entry into HCT116 cells” value in the data set on HCT116 cells [1] is “does not prevent eM-DnaK entry into HCT116 cells”. The Kd (commonly a measure of binding affinity in units of concentration) in data set [2] amounted to 1.9 µM. In addition, the “reduction in cell viability” value is 5-8% in the data set with AGS cells (ARV-1502 alone, on average (data not shown)) and 5-8% in the data set on HCT116 cells [3] (HCT116, ARV-1502 alone, on average (data not shown)). In addition, the “restoration of anti-cancer activity of cisplatin and 5FU” value with AGS cells (in the presence of eF-DnaK pre-treated with ARV-1502 (25 μg/ml)) is listed as “able to restore the drugs' anti-cancer activity”; in the data set with AGS cells (in the presence of eM-DnaK pre-treated with ARV-1502 (25 μg/ml)), “restoration of the original anti-cancer activity of each drug”; in the data set with HCT116 cells [3] (HCT116, in the presence of eF-DnaK pre-treated with ARV-1502 (25 μg/ml)), “able to restore the drugs' anti-cancer activity”; in the data set with HCT116 cells [3] (HCT116, in the presence of eM-DnaK pre-treated with ARV-1502 (25 μg/ml)), “restoration of the original anti-cancer activity of each drug”. The “DnaK binding and ATPase activity” value on Escherichia coli DnaK is “bind the Escherichia coli DnaK substrate-binding domain and to reduce its ATPase activity”. This molecule had an inhibitory effect in data set [4] (ARV-1502 alone) of 11%. Also, in data set [4] (ARV-1502 with cisplatin or 5FU versus drug alone, for both drugs), the improved anti-cancer effect is recorded as 25%.
